Measurements reported in US7928126B2, “Cyanopyridine derivative and use thereof as medicine” (Mitsubishi Tanabe Pharma Corporation, priority 2005, dated 2011).
Counter-ions that a name gives are not always drawn.

Assays:
aurora 2 kinase = biological target: T1, aurora 2 kinase (Homo sapiens, UniProt O14965); assay: Aurora 2 kinase assay (32P-ATP, peptide substrate LRRASLG); type: biochemical; conditions: room temperature 60 min
T1 construct: The amplified gene encoding aurora 2 kinase was introduced into Escherichia coli expression vector pET32a; made in house; host or cells: Escherichia coli BL21R (Novagen), vector pET32a
T1 sequence (O14965 1-403): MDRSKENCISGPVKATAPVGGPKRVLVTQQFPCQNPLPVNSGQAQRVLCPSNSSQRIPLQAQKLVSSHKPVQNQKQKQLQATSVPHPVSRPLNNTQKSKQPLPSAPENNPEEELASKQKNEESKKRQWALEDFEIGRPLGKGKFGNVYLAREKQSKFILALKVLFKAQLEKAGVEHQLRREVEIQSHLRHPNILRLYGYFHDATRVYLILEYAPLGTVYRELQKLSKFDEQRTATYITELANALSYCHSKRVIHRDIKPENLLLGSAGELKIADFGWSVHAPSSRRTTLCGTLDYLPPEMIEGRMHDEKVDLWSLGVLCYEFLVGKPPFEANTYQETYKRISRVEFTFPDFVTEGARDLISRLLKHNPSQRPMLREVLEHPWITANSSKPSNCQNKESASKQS

aurora 1 kinase = biological target: T2, aurora 1 kinase (Homo sapiens, UniProt Q96GD4); assay: Aurora 1 kinase assay (32P-ATP, peptide substrate LRRWSLG); type: biochemical; conditions: room temperature 60 min
T2 construct: purchased UPSTATE
T2 sequence (Q96GD4 whole entry): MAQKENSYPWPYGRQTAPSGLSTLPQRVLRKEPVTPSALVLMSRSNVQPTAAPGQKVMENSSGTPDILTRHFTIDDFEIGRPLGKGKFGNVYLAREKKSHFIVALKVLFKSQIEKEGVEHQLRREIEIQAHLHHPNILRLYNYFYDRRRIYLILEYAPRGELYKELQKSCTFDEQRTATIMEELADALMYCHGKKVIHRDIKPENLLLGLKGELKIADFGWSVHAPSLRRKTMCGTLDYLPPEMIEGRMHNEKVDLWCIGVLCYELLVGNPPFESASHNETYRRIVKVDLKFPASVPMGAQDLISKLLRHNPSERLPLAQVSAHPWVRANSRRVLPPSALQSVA

[1] = biological target: T3, Porcine brain tubulin protein (Sus scrofa, UniProt P02550+P02554); assay: Tubulin polymerization assay (turbidity at 405 nm); type: biochemical; conditions: 10 μM compound, maximum polymerization rate, 37° C.; read-out: inhibitory rate (%)
T3 construct: 3.3 mg/ml Porcine brain tubulin protein: Cytoskeleton; purchased Cytoskeleton; host or cells: porcine brain (tissue-derived)
T3 sequence (P02550 whole entry): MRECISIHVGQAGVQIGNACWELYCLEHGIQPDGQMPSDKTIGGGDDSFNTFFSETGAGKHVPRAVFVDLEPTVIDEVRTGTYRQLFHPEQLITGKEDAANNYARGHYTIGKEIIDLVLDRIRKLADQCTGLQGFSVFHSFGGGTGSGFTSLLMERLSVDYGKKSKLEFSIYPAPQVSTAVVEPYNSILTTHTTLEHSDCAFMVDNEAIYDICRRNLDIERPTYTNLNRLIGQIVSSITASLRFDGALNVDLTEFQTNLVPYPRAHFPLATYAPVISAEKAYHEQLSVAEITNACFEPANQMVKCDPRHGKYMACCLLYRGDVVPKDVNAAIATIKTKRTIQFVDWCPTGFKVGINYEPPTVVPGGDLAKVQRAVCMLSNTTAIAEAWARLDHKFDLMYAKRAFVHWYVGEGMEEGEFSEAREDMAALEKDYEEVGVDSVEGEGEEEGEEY
T3 sequence (P02554 whole entry): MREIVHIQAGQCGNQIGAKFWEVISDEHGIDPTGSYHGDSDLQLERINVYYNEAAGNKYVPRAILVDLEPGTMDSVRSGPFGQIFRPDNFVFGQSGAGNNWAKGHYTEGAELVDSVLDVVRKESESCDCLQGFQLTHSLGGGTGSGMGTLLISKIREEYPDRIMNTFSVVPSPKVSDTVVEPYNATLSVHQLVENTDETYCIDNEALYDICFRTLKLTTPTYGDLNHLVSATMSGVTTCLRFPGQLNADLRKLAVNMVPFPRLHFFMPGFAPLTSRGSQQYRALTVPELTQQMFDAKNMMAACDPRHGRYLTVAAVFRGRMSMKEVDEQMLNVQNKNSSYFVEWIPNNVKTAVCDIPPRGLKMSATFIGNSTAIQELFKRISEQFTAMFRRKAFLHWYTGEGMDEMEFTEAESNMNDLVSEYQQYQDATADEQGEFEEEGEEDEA
Protocol: A tubulin polymerization reaction mixture (50 μL) (80 mM Pipes pH=6.9, 0.5 mM MgCl2, 1 mM EGTA, 1 mM GTP, 3.3 mg/ml Porcine brain tubulin protein: Cytoskeleton, 10 μM compound) was prepared in a 96 well flat bottom plate under ice-cooling. This was placed in a plate reader (IWAKI microplate reader, EZS-ABS) controlled to a temperature of 37° C., whereby a temperature dependent tubulin polymerization reaction was initiated. Since the turbidity of the reaction mixture increases as the tubulin polymerization proceeds, the absorbance at 405 nm was measured every other minute for 30 min to monitor the polymerization reaction. Of the 30 min measures, the three largest differences per min of turbidity (generally those immediately after start of the reaction) were taken, and the average of the three values was calculated and taken as the maximum polymerization rate. Inhibitory percent (%)=(C−T)/C×100 wherein T is the maximum polymerization rate of the reaction mixture containing the compound, and C is the maximum polymerization rate of the reaction mixture without the compound.

[2] = tested on: human colon cancer cell line HCT-116; assay: Cancer cell growth inhibition (WST-8), HCT-116; type: cell-based; conditions: HCT-116, 72 h, HCT116, 3 days, read-out: Cell proliferation suppressive activity value IC50
Protocol: (§1) Using RPMI1640 medium (manufactured by SIGMA) containing 10% fetal bovine serum, human prostate cancer cell line PC-3, human pancreatic cancer cell line PK-8, and human breast cancer cell line MDA-MB-453 were cultured at 37° C. under 5% CO2. Using DMEM/F-12 medium (manufactured by SIGMA) containing 10% fetal bovine serum, human colon cancer cell line HCT-116, human colon cancer cell line SW620, human ovarian cancer cell line SKOV-3, human prostate cancer cell line DU-145 and human pancreatic cancer cell line PANC-1 were cultured at 37° C. under 5% CO2. These cells were inoculated to a 96 well plate and cultured for one day. Thereto was added a compound diluted with a medium to a final concentration of 0.00064-20 μM (final DMSO concentration, 0.4%). After further cultivation for 3 days, WST-8 (0.16 mg/mL) was added to the culture medium and the culture medium was cultured for 2 hr. The absorbance at 650 nm was subtracted from the absorbance at 450 nm. The growth inhibitory activity was expressed by the decrease rate of the absorbance of compound addition group relative to the absorbance of compound non-addition group, and IC50 value was determined from the dose-reaction curve plotting the decrease rate of the absorbance, which was obtained by changing the concentration of the compound, and the concentration of the compound.

[3] = tested on: human colon cancer cell line SW620; assay: Cancer cell growth inhibition (WST-8), SW620; type: cell-based; conditions: SW-620, 72 h, SW620, 3 days, read-out: Cell proliferation suppressive activity value IC50
Protocol: as §1

[4] = tested on: human prostate cancer cell line PC-3; assay: Cancer cell growth inhibition (WST-8), PC-3; type: cell-based; conditions: 72 h, PC3, 3 days, read-out: Cell proliferation suppressive activity value IC50
Protocol: as §1

[5] = tested on: human ovarian cancer cell line SKOV-3; assay: Cancer cell growth inhibition (WST-8), SKOV-3; type: cell-based; conditions: SK-OV-3, 72 h, SKOV3, 3 days, read-out: Cell proliferation suppressive activity value IC50
Protocol: as §1

[6] = tested on: human pancreatic cancer cell line PK-8; assay: Cancer cell growth inhibition (WST-8), PK-8; type: cell-based; conditions: 72 h, PK8, 3 days, read-out: Cell proliferation suppressive activity value IC50
Protocol: as §1

[7] = tested on: human prostate cancer cell line DU-145; assay: Cancer cell growth inhibition (WST-8), DU-145; type: cell-based; conditions: DU-145, 72 h, DU145, 3 days, read-out: Cell proliferation suppressive activity value IC50
Protocol: as §1

[8] = tested on: human breast cancer cell line MDA-MB-453; assay: Cancer cell growth inhibition (WST-8), MDA-MB-453; type: cell-based; conditions: MDA-MB-453, 72 h, MDAMB-453, 3 days, read-out: Cell proliferation suppressive activity value IC50
Protocol: as §1

[9] = tested on: human pancreatic cancer cell line PANC-1; assay: Cancer cell growth inhibition (WST-8), PANC-1; type: cell-based; conditions: 72 h, PANC-1, 3 days, read-out: Cell proliferation suppressive activity value IC50
Protocol: as §1

human cancer cell lines = assay: Cancer cell growth inhibitory effect, whole cell line panel; type: cell-based; conditions: over the panel of cell lines
Protocol: as §1

Structure (SMILES): Cc1cc(Nc2cc(C)c(C#N)c(NCCOc3ccccc3)n2)n[nH]1 [Example 2, 2-(2-phenoxyethylamino)-6-(5-methyl-1H-pyrazol-3-ylamino)-4-methylnicotinonitrile]
- Ki (aurora 2 kinase): 3 nM
- Ki (aurora 1 kinase): ≤ 100 nM
- inhibition at 10 µM [1]: 69%
- IC50 [2]: 11 nM
- IC50 [3]: 8 nM
- IC50 [4]: 17 nM
- IC50 [5]: 10 nM
- IC50 [6]: 18 nM
- IC50 [7]: 7 nM
- IC50 [8]: 7 nM
- IC50 [9]: 1290 nM

Structure (SMILES): Cc1cc(Nc2cc(C)c(C#N)c(NCCOc3cccc(F)c3)n2)n[nH]1 [Example 9, 2-(2-(3-fluorophenoxy)ethylamino)-6-(5-methyl-1H-pyrazol-3-ylamino)-4-methylnicotinonitrile hydrochloride]
- Ki (aurora 2 kinase): 1 nM
- inhibition at 10 µM [1]: 86%
- IC50 [2]: 17 nM
- IC50 [3]: < 6.4 nM
- IC50 [4]: < 6.4 nM
- IC50 [5]: < 6.4 nM
- IC50 [6]: 83 nM
- IC50 [7]: 647 nM
- IC50 [8]: < 6.4 nM
- IC50 [9]: 1180 nM

Structure (SMILES): Cc1cc(Nc2ccc(C#N)c(NCCOc3cccnc3C)n2)n[nH]1 [Example 28, 2-(2-(2-methylpyridin-3-yloxy)ethylamino)-6-(5-methyl-1H-pyrazol-3-ylamino)nicotinonitrile dihydrochloride]
- Ki (aurora 2 kinase): 4 nM
- Ki (aurora 1 kinase): ≤ 100 nM
- inhibition at 10 µM [1]: 69%
- IC50 [2]: 3 nM
- IC50 [3]: < 6.4 nM
- IC50 [4]: < 6.4 nM
- IC50 [5]: < 6.4 nM
- IC50 [6]: < 6.4 nM
- IC50 [7]: 19 nM
- IC50 [8]: 4 nM
- IC50 [9]: 6180 nM

Structure (SMILES): Cc1ccc(OCCNc2nc(Nc3cc(C)[nH]n3)cc(C)c2C#N)c(C)n1 [Example 23, 2-(2-(2,6-dimethylpyridin-3-yloxy)ethylamino)-6-(5-methyl-1H-pyrazol-3-ylamino)-4-methylnicotinonitrile dihydrochloride]
- Ki (aurora 2 kinase): 10 nM
- inhibition at 10 µM [1]: 77%
- IC50 [2]: 37 nM
- IC50 [3]: 40 nM
- IC50 [4]: 21 nM
- IC50 [5]: 8 nM
- IC50 [6]: 13 nM
- IC50 [7]: 50 nM
- IC50 [8]: 40 nM
- IC50 [9]: 3 nM
- cancer cell growth inhibitory action (in words) (human cancer cell lines): good cancer cell growth inhibitory action over a broad range

Structure (SMILES): Cc1cc(Nc2cc(C)c(C#N)c(NCCOc3cccnc3C)n2)n[nH]1 [Example 22, 2-(2-(2-methylpyridin-3-yloxy)ethylamino)-6-(5-methyl-1H-pyrazol-3-ylamino)-4-methylnicotinonitrile dihydrochloride]
- Ki (aurora 2 kinase): 4 nM
- inhibition at 10 µM [1]: 79%
- IC50 [2]: 4 nM
- IC50 [3]: < 6.4 nM
- IC50 [4]: 15 nM
- IC50 [5]: 4 nM
- IC50 [6]: 7 nM
- IC50 [7]: 8 nM
- IC50 [8]: < 6.4 nM
- IC50 [9]: < 6.4 nM
- cancer cell growth inhibitory action (in words) (human cancer cell lines): good cancer cell growth inhibitory action over a broad range

Structure (SMILES): Cc1cc(Nc2cc(C)c(C#N)c(NCCOc3cccnc3)n2)n[nH]1 [Example 12, 2-(2-(pyridin-3-yloxy)ethylamino)-6-(5-methyl-1H-pyrazol-3-ylamino)-4-methylnicotinonitrile dihydrochloride]
- Ki (aurora 2 kinase): 2 nM
- Ki (aurora 1 kinase): ≤ 100 nM
- inhibition at 10 µM [1]: 44%
- IC50 [2]: 2 nM
- IC50 [3]: < 6.4 nM
- IC50 [4]: 7 nM
- IC50 [5]: 1 nM
- IC50 [6]: 4 nM
- IC50 [7]: 7 nM
- IC50 [8]: 3 nM
- IC50 [9]: 9 nM
- cancer cell growth inhibitory action (in words) (human cancer cell lines): good cancer cell growth inhibitory action over a broad range

Structure (SMILES): Cc1ccc(OCCNc2nc(Nc3cc(C)[nH]n3)cc(C)c2C#N)cn1 [Example 21, 2-(2-(6-methylpyridin-3-yloxy)ethylamino)-6-(5-methyl-1H-pyrazol-3-ylamino)-4-methylnicotinonitrile]
- Ki (aurora 2 kinase): 2 nM
- Ki (aurora 1 kinase): ≤ 100 nM
- inhibition at 10 µM [1]: 63%
- IC50 [2]: 7 nM
- IC50 [3]: 5 nM
- IC50 [4]: 4 nM
- IC50 [5]: 3 nM
- IC50 [6]: 8 nM
- IC50 [7]: 13 nM
- IC50 [8]: 12 nM
- IC50 [9]: 14 nM
- cancer cell growth inhibitory action (in words) (human cancer cell lines): good cancer cell growth inhibitory action over a broad range
